The values that follow come from patent US9884868B2, “TGF-beta inhibitors” (Rigel Pharmaceuticals, Inc., priority 2015, dated 2018).

Molecules are shown by their SMILES.

For this test, the target named is HIS-TGF-βR1 T204D (Homo sapiens (Human), UniProt P36897, T204D). Put plainly: HTRF probe displacement assay with HIS-TGF-βR1 T204D. The conditions noted are these: read-out: TGFbr1 IC50; HTRF probe displacement, 1 nM HIS-TGF-βR1 T204D, 1 hour at room temperature.
Chain of HIS-TGF-βR1 T204D (P36897 34-503 T204D): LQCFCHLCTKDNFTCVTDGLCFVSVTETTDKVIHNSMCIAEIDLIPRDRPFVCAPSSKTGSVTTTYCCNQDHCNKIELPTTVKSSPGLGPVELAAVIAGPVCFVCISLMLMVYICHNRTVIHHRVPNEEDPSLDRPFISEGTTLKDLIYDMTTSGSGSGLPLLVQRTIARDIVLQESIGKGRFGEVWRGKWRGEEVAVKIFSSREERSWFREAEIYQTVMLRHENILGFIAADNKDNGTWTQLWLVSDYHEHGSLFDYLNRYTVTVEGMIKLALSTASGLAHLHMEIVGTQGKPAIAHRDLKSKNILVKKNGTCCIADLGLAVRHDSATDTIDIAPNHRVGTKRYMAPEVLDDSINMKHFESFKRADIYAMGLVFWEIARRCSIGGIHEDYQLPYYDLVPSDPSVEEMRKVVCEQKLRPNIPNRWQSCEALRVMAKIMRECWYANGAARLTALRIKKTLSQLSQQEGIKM
As for `Fc1ccc(-c2ncn(CC(F)F)c2-c2ccc3ncc(F)n3c2)cc1` [Example 288′, 6-(1-(2,2-difluoroethyl)-4-(4-fluorophenyl)-1H-imidazol-5-yl)-3-fluoroimidazo[1,2-a]pyridine], the IC50 turned out to be 56.7 nM. To `CC1(n2cnc(-c3ccc(F)c(Cl)c3)c2-c2ccc3ncc(C#N)n3n2)COC1` [43′, 6-(4-(3-chloro-4-fluorophenyl)-1-(3-methyloxetan-3-yl)-1H-imidazol-5-yl)imidazo[1,2-b]pyridazine-3-carbonitrile] belongs 2.7 nM; to `CC(C)(O)Cn1cnc(-c2ccc(F)cc2)c1-c1ccc2ncc(C#N)n2c1` [90′, 6-(4-(4-fluorophenyl)-1-(2-hydroxy-2-methylpropyl)-1H-imidazol-5-yl)imidazo[1,2-a]pyridine-3-carbonitrile], 107 nM; to `N#CCCn1cnc(-c2ccc(F)cc2)c1-c1ccc2ncc(C#N)n2n1` [268′, 6-(1-(2-cyanoethyl)-4-(4-fluorophenyl)-1H-imidazol-5-yl)imidazo[1,2-b]pyridazine-3-carbonitrile], 19 nM.

For the molecule `CC(C)(O)c1cnc2ccc(-c3c(-c4ccc(F)cc4)ncn3CC(F)F)cn12` [Example 278′], the IC50 was found to be 184 nM. Consider `Cc1nc(-c2ccc(F)cc2)c(-c2ccc3nccn3c2)n1CC(F)F` [Example 271′, 6-(1-(2,2-difluoroethyl)-4-(4-fluorophenyl)-2-methyl-1H-imidazol-5-yl)imidazo[1,2-a]pyridine], for which the IC50 turned out to be 172 nM.

On to `NC(=O)c1cnc2ccc(-c3c(-c4ccc(F)c(Cl)c4)ncn3CC(F)F)nn12` [113′, 6-(4-(3-chloro-4-fluorophenyl)-1-(2,2-difluoroethyl)-1H-imidazol-5-yl)imidazo[1,2-b]pyridazine-3-carboxamide], for which the IC50 amounted to 0.9 nM. On to `NC(=O)c1cnc2ccc(-c3c(-c4ccc(F)cc4)ncn3C3COC3)nn12` [126′, 6-(4-(4-fluorophenyl)-1-(oxetan-3-yl)-1H-imidazol-5-yl)imidazo[1,2-b]pyridazine-3-carboxamide], for which the IC50 came out at 7.4 nM. `N#Cc1cnc2ccc(-c3c(-c4ccc(F)cc4)ncn3CCCO)cn12` [75′, 6-(4-(4-fluorophenyl)-1-(3-hydroxypropyl)-1H-imidazol-5-yl)imidazo[1,2-a]pyridine-3-carbonitrile]: the IC50 was 200 nM. Consider `N#Cc1cccc(-c2ncn(CC(F)F)c2-c2ccc3ncc(C#N)n3n2)c1` [Example 236], for which the IC50 was found to be 2.1 nM.

On to `CCn1cnc(-c2ccc(F)cc2)c1-c1ccc2ncc(C(N)=O)n2n1` [112′, 6-(1-ethyl-4-(4-fluorophenyl)-1H-imidazol-5-yl)imidazo[1,2-b]pyridazine-3-carboxamide], for which the IC50 was 0.7 nM. To `Fc1ccc(-c2ncn(CC(F)F)c2-c2ccc3nncn3c2)cc1` [Example 281′, 6-(1-(2,2-difluoroethyl)-4-(4-fluorophenyl)-1H-imidazol-5-yl)-[1,2,4]triazolo[4,3-a]pyridine] belongs 522 nM. As for `N#Cc1cnc2ccc(-c3c(-c4ccc(F)cc4)ncn3C[C@@H](O)CO)cn12` [71′, (R)-6-(1-(2,3-dihydroxypropyl)-4-(4-fluorophenyl)-1H-imidazol-5-yl)imidazo[1,2-a]pyridine-3-carbonitrile], the IC50 is 170 nM. To `Fc1ccc(-c2ncn(CC(F)F)c2-c2ccc3nccn3c2)cc1Cl` [219′, 6-(4-(3-chloro-4-fluorophenyl)-1-(2,2-difluoroethyl)-1H-imidazol-5-yl)imidazo[1,2-a]pyridine] belongs 9.9 nM; to `CC(C)n1cnc(-c2ccc(F)cc2)c1-c1ccc2ncc(C(N)=O)n2c1` [170′, 6-(4-(4-fluorophenyl)-1-isopropyl-1H-imidazol-5-yl)imidazo[1,2-a]pyridine-3-carboxamide], 0.5 nM. To `N#Cc1cnc2ccc(-c3c(-c4ccccc4O)ncn3CC(F)F)nn12` [248′, 6-(1-(2,2-difluoroethyl)-4-(2-hydroxyphenyl)-1H-imidazol-5-yl)imidazo[1,2-b]pyridazine-3-carbonitrile] belongs 0.7 nM. `N#Cc1cnc2ccc(-c3c(-c4ccc(F)c(Cl)c4)ncn3[C@H]3C[C@@H](O)C3)nn12` [Example 39′, 6-(4-(3-chloro-4-fluorophenyl)-1-((cis)-3-hydroxycyclobutyl)-1H-imidazol-5-yl)imidazo[1,2-b]pyridazine-3-carbonitrile]: the IC50 was found to be 0.9 nM.

Take `CC(C)n1cnc(-c2ccc(F)cc2)c1-c1ccc2ncc(C#N)n2n1` [24′, 6-(4-(4-fluorophenyl)-1-isopropyl-1H-imidazol-5-yl)imidazo[1,2-b]pyridazine-3-carbonitrile]: the IC50 came to 0.4 nM. In the case of `CCOCCn1cnc(-c2ccc(F)cc2)c1-c1ccc2ncc(C(N)=O)n2c1` [178′, 6-(1-(2-ethoxyethyl)-4-(4-fluorophenyl)-1H-imidazol-5-yl)imidazo[1,2-a]pyridine-3-carboxamide], the IC50 was determined as 1.9 nM. Consider `CC[C@@H](CO)n1cnc(-c2ccc(F)cc2)c1-c1ccc2ncc(C(N)=O)n2n1` [125′, (S)-6-(4-(4-fluorophenyl)-1-(1-hydroxybutan-2-yl)-1H-imidazol-5-yl)imidazo[1,2-b]pyridazine-3-carboxamide], for which the IC50 is 2.6 nM. For the molecule `Cn1cnc(-c2ccc(F)c(F)c2)c1-c1ccc2cn[nH]c2c1` [Compound 65, 6-(4-(3,4-Difluorophenyl)-1-methyl-1H-imidazol-5-yl)-1H-indazole], the IC50 was found to be 63.2 nM.

Take `N#Cc1cnc2ccc(-c3c(-c4ccc(F)cc4)ncn3C3CCC(F)(F)C3)nn12` (centres unmarked) [5′, 6-(1-(3,3-difluorocyclopentyl)-4-(4-fluorophenyl)-1H-imidazol-5-yl)imidazo[1,2-b]pyridazine-3-carbonitrile]: the IC50 worked out at 5.5 nM. On to `N#Cc1cnc2ccc(-c3c(-c4ccc(F)cc4)ncn3C3CCCC3)cn12` [86′, 6-(1-cyclopentyl-4-(4-fluorophenyl)-1H-imidazol-5-yl)imidazo[1,2-a]pyridine-3-carbonitrile], for which the IC50 came to 94.7 nM.

Regarding `NC(=O)c1cnc2ccc(-c3c(-c4ccc(F)cc4)ncn3CCF)nn12` [111′, 6-(1-(2-fluoroethyl)-4-(4-fluorophenyl)-1H-imidazol-5-yl)imidazo[1,2-b]pyridazine-3-carboxamide], the IC50 is 0.8 nM.

`N#Cc1cnc2ccc(-c3c(-c4ccc(F)cc4)ncn3CC3CCCO3)nn12` (centres unmarked) [31′, 6-(4-(4-fluorophenyl)-1-((tetrahydrofuran-2-yl)methyl)-1H-imidazol-5-yl)imidazo[1,2-b]pyridazine-3-carbonitrile]: the IC50 was 1.9 nM. `NC(=O)c1cnc2ccc(-c3c(-c4ccc(F)cc4)ncn3CCCO)nn12` [132′, 6-(4-(4-fluorophenyl)-1-(3-hydroxypropyl)-1H-imidazol-5-yl)imidazo[1,2-b]pyridazine-3-carboxamide]: the IC50 stood at 4.7 nM.

Regarding `CC1(Cn2cnc(-c3ccc(F)c(Cl)c3)c2-c2ccc3ncc(C#N)n3n2)CC1` [62′, 6-(4-(3-chloro-4-fluorophenyl)-1-((1-methylcyclopropyl)methyl)-1H-imidazol-5-yl)imidazo[1,2-b]pyridazine-3-carbonitrile], the IC50 came to 1.6 nM. For `CC(C)(C)Cn1cnc(-c2ccc(F)cc2)c1-c1ccc2ncc(C#N)n2n1` [Example 270′, 6-(4-(4-fluorophenyl)-1-neopentyl-1H-imidazol-5-yl)imidazo[1,2-b]pyridazine-3-carbonitrile], the IC50 was found to be 99.2 nM.

For `Fc1ccc(Cl)cc1-c1ncn(CC(F)F)c1-c1ccc2nccn2c1` [222′, 6-(4-(5-chloro-2-fluorophenyl)-1-(2,2-difluoroethyl)-1H-imidazol-5-yl)imidazo[1,2-a]pyridine], the IC50 turned out to be 2.9 nM. As to `Cc1nc(-c2ccc(F)cc2)c(-c2ccc3[nH]ncc3c2)n1CC(F)F` [Example 273′, 5-(1-(2,2-difluoroethyl)-4-(4-fluorophenyl)-2-methyl-1H-imidazol-5-yl)-1H-indazole], the IC50 was 29.6 nM. To `N#Cc1cnc2ccc(-c3c(-c4ccc(F)c(Cl)c4)ncn3CCCF)cn12` [101′, 6-(4-(3-chloro-4-fluorophenyl)-1-(3-fluoropropyl)-1H-imidazol-5-yl)imidazo[1,2-a]pyridine-3-carbonitrile] belongs 23.2 nM; to `N#Cc1cnc2ccc(-c3c(-c4ccc(F)c(Cl)c4)ncn3C3CC(F)(F)C3)nn12` [53′, 6-(4-(3-chloro-4-fluorophenyl)-1-(3,3-difluorocyclobutyl)-1H-imidazol-5-yl)imidazo[1,2-b]pyridazine-3-carbonitrile], 2.1 nM; to `N#Cc1cnc2ccc(-c3c(-c4ccc(F)cc4)ncn3C3CC3)nn12` [7′, 6-(1-cyclopropyl-4-(4-fluorophenyl)-1H-imidazol-5-yl)imidazo[1,2-b]pyridazine-3-carbonitrile], 2.4 nM. As for `CCn1cnc(-c2ccc(F)cc2)c1-c1ccc2ncc(C#N)n2c1` [73′, 6-(1-ethyl-4-(4-fluorophenyl)-1H-imidazol-5-yl)imidazo[1,2-a]pyridine-3-carbonitrile], the IC50 amounted to 36.2 nM. Consider `Fc1ccc(-c2ncn(CC(F)F)c2-c2ccc3ncc(C4CC4)n3c2)cc1` [Example 285′, 3-cyclopropyl-6-(1-(2,2-difluoroethyl)-4-(4-fluorophenyl)-1H-imidazol-5-yl)imidazo[1,2-a]pyridine], for which the IC50 is 38.8 nM.

For `Cn1cnc(-c2ccc(F)c(Cl)c2)c1-c1ccc2ncc(C#N)n2n1` [50′, 6-(4-(3-chloro-4-fluorophenyl)-1-methyl-1H-imidazol-5-yl)imidazo[1,2-b]pyridazine-3-carbonitrile], the half-maximal inhibitory concentration (IC50) was 2.3 nM. For the molecule `CCn1cnc(-c2ccc(F)c(Cl)c2)c1-c1ccc2ncc(C(N)=O)n2c1` [119′, 6-(4-(3-chloro-4-fluorophenyl)-1-ethyl-1H-imidazol-5-yl)imidazo[1,2-a]pyridine-3-carboxamide], the IC50 is 0.4 nM. As to `C[C@@H](O)Cn1cnc(-c2ccc(F)cc2)c1-c1ccc2ncc(C#N)n2c1` [68′, (R)-6-(4-(4-fluorophenyl)-1-(2-hydroxypropyl)-1H-imidazol-5-yl)imidazo[1,2-a]pyridine-3-carbonitrile], the IC50 was 301 nM.

In general, IC50 refers to the concentration at which inhibition is half-maximal.
